The values that follow come from patent publication US8273777B2, “Glucokinase activators and methods of using same” (Bristol-Meyer Squibb Company, priority 2007, dated 2012).

SMILES strings stand for the structures.

In one assay the target is T1, human glucokinase (GK) (Homo sapiens, UniProt P35557).
T1 construct: Full-length human hepatic GK (untagged) was expressed in BL21 STAR (DE3)pLysS cells; made in house; host or cells: E. coli BL21 STAR (DE3)pLysS (Invitrogen)
T1 sequence (P35557 1-466 isoform P35557-2): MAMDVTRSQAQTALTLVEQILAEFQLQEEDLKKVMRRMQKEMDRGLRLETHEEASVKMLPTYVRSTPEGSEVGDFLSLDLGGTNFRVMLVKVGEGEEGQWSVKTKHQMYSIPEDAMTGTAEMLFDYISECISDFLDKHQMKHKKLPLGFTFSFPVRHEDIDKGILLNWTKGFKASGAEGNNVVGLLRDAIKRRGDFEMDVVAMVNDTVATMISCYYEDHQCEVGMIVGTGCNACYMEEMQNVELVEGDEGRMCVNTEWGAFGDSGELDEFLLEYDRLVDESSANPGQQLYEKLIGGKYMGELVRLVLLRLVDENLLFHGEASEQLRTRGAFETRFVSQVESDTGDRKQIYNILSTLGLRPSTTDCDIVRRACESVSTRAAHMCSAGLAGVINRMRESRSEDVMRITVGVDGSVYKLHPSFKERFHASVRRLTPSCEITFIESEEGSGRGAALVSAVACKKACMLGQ
Description: Glucokinase tandem enzymatic assay. Conditions: 12 mM glucose; EC50 = concentration to achieve 50% of full activation. The class given is biochemical. Here is the method: Glucokinase Tandem Enzymatic Assay
Enzymatic activity of human glucokinase (GK) was measured by incubating GK, ATP, and glucose for discrete time periods followed by quenching with EDTA (ethylenediamine tetra-acetic acid). Relative amounts of product glucose-6-phosphate (G6P) were measured by then running a detection assay using G6P dehydrogenase and measuring the conversion of ThioNAD (thio-nicotinamide adenine dinucleotide) to ThioNADH (thio-dihydronicotinamide adenine dinucleotide) at a wavelength of 405 nm. This ‘uncoupled’ enzymatic reaction is denoted as the GK ‘tandem’ assay. Activation of GK by compounds can be assessed using this assay. The GK tandem assay protocol described below was followed using a range of activator compound concentrations from 0 to 100 μM at 5 and 12 mM of glucose. Human full-length glucokinase (GK, 15 nM) was incubated with 5 or 12 mM glucose in a 384 well black microtiter plate with a clear bottom. To initiate the GK reaction, magnesium-ATP (3 mM final concentration) was added to GK in buffer (final buffer conditions of 25 mM HEPES buffer, pH 7.1, containing 1 mM dithiothreitol and 5% DMSO). The total reaction volume was 20 μL The reaction was allowed to proceed for ten minutes and was then quenched with 5 μL EDTA; 45 mM final). The components of the detection reaction, ThioNAD and G6PDH (glucose-6-phosphate dehydrogenase) (final concentrations of 650 μM and 3.33 Units, respectively), were then added together in a volume of 25 μL (to give a total volume of 50 μL). Absorbance measurements were made at 405 nm on a Spectramax Plus 384 absorbance plate reader (Molecular Devices). Absorbance was read, background glucose-6-phosphate levels were subtracted, after which activation was calculated as a percentage of control activity. Control activity was determined using GK in the presence of vehicle (DMSO), with background glucose-6-phosphate subtracted. Background glucose-6-phosphate was determined by pre-quenching GK with EDTA prior to reaction initiation with ATP.
Expression and Purification of Human GK
Full-length human hepatic GK (untagged) was expressed in BL21 STAR (DE3)pLysS cells (Invitrogen) at 25° C. as described by Mookhtiar et al. (1). The protein was purified essentially as described by Lange (2) with a slight modification. Briefly, cell pellets were lysed via three rounds of freezing and thawing, centrifuged at 15000 g for clarification, and precipitated with 40-65% (NH4)2SO4. The resulting pellet was resuspended in buffer, dialyzed, and applied directly to a Q-Sepharose (Sigma) column followed by elution with a linear 100-600 mM KCl gradient. GK containing fractions were pooled, dialyzed overnight vs. 25 mM Hepes pH 7.2/1 mM MgCl2/1 mM EDTA/0.1 M KCl/1 mM DTT, then dialyzed again with same buffer with 10% glycerol added.
The compound `COC[C@H](C)Oc1cc(NC(=O)c2nc3ccccc3s2)cc(Oc2ccc(S(C)(=O)=O)cc2)c1` [Example 5] showed an EC50 of 165 nM.

In turn, `COC[C@H](C)Oc1cc(NC(=O)c2c[nH]cn2)cc(Oc2ccc(S(C)(=O)=O)cc2)c1` [Example 6] yielded an EC50 of 191 nM.

As to `COC[C@H](C)Oc1cc(NC(=O)c2cc[nH]n2)cc(Oc2ccc(S(C)(=O)=O)cc2)c1` [Example 8], the EC50 turned out to be 513 nM.

`COC[C@H](C)Oc1cc(NC(=O)c2ncc(C)s2)cc(Oc2ccc(S(C)(=O)=O)cc2)c1` [Example 18] showed an EC50 of 67 nM.

Compound `Cc1cnc(C(=O)Nc2cc(Oc3ccc(S(C)(=O)=O)cc3)cc(O[C@@H](C)CO)c2)s1` [Example 22] had an EC50 of 77 nM.

The compound `CS(=O)(=O)c1ccc(Oc2cc(NC(=O)c3c[nH]cn3)cc(Oc3ccc(S(C)(=O)=O)cc3)c2)cc1` [Example 31] showed an EC50 of 575 nM.

The assay is the same for the next values; noted with them: 12 mM glucose; expressed as % of basal activation; EC50 could not be calculated; read-out: Maximal activation (%) Human Glucokinase @ 12 mM Glucose.
For `COC[C@H](C)Oc1cc(NC(=O)c2ncn[nH]2)cc(Oc2ccc(S(C)(=O)=O)cc2)c1` [Example 7], the Emax is 131%.

`CS(=O)(=O)c1ccc(Oc2cc(NC(=O)c3nccs3)cc(C(F)(F)F)c2)cc1` [Example 37]: the Emax was 163%.

Another assay deals with male DIO (diet-induced obese) C57BL/6J mice. Description: Oral glucose tolerance test (OGTT) in DIO mice. The class given is in vivo. The conditions noted are these: 30 mg/kg dose, given orally 60 min before glucose 2 g/kg, ΔAUC 0-120 min. The method, then:
In Vivo Studies: Oral Glucose Tolerance Test (OGTT)
Oral glucose tolerance tests were carried out on male DIO (diet-induced obese) C57BL/6J mice fed a high fat diet (60% kcal from fat) for 26 weeks prior to experimentation. Mice were fasted overnight before use for experiments. A test compound or vehicle (10% dimethyl acetamide +10% ethanol +10% Cremophore +70% water) was given orally 60 min before oral administration of a glucose solution at a dose of 2 g/kg body weight (oral glucose tolerance test; OGTT). Blood glucose levels were measured from tail-bled samples taken at different time points before and after administration of glucose (time course of 2 hours). A time curve of the blood glucose was generated and the change from baseline area-under-the curve (ΔAUC) from 0-120 min was calculated (the time glucose administration being time zero).
With `COC[C@H](C)Oc1cc(NC(=O)c2c[nH]cn2)cc(Oc2ccc(S(C)(=O)=O)cc2)c1` [Example 6], the “reduction of glucose AUC levels in OGTT” value is given as 66%.

In general, EC50 refers to the concentration at which the effect is half-maximal. Lower therefore signals higher potency in that assay.
